EPA's CvTdb concentration-time database

Key:
[1] = tested on: Mouse; assay: concentration in plasma after dosing; conditions: 0.25 h; dosed: 2-Hydroxy-4-methoxybenzophenone; 500 mg/kg; oral; Male; B6C3F1
[2] = tested on: Mouse; assay: concentration in plasma after dosing; conditions: 3 h; dosed: 2-Hydroxy-4-methoxybenzophenone; 250 mg/kg; oral; Male; B6C3F1
[3] = tested on: Rat; assay: concentration in plasma after dosing; conditions: dosed: 2-Hydroxy-4-methoxybenzophenone, 500 mg/kg, oral, Male, F344
[4] = tested on: Rat; assay: concentration in plasma after dosing; conditions: 6 h; dosed: 2-Hydroxy-4-methoxybenzophenone; 500 mg/kg; oral; Male; F344
[5] = tested on: Mouse; assay: concentration in plasma after dosing; conditions: 2 h; dosed: 2-Hydroxy-4-methoxybenzophenone; 250 mg/kg; oral; Female; B6C3F1
[6] = tested on: Rat; assay: concentration in plasma after dosing; conditions: dosed: 2-Hydroxy-4-methoxybenzophenone, 100 mg/kg, oral, Female, F344
[7] = tested on: Rat; assay: concentration in plasma after dosing; conditions: dosed: Nitrite, 20 mg/kg, iv, Male, F344
[8] = tested on: Rat; assay: concentration in plasma after dosing; conditions: 5 min; dosed: Nitrite; 80 mg/kg; oral; Female; F344
[9] = tested on: Rat; assay: concentration in plasma after dosing; conditions: dosed: Nitrite, 40 mg/kg, oral, Female, F344
[10] = tested on: Rat; assay: concentration in plasma after dosing; conditions: dosed: Nitrite, 20 mg/kg, iv, Male, F344; remark: listed apart in the source
[11] = tested on: Rat; assay: concentration in plasma after dosing; conditions: 20 min; dosed: Nitrite; 20 mg/kg; iv; Male; F344
[12] = tested on: Rat; assay: concentration in plasma after dosing; conditions: dosed: 678-39-7, 12 mg/kg, iv, Male, F344
[13] = tested on: Rat; assay: concentration in kidney after dosing; conditions: 3 h; dosed: Fluorotelomer alcohol 8+2; 80 mg/kg; oral; Female; Harlan Sprague Dawley
[14] = tested on: Rat; assay: concentration in plasma after dosing; conditions: 192 h; dosed: 678-39-7; 12 mg/kg; iv; Male; F344
[15] = tested on: Rat; assay: concentration in liver after dosing; conditions: 1 h; dosed: Fluorotelomer alcohol 8+2; 24 mg/kg; oral; Male; Harlan Sprague Dawley
[16] = tested on: Rat; assay: concentration in brain after dosing; conditions: 3 h; dosed: Perfluorooctanoic acid; 80 mg/kg; oral; Female; Harlan Sprague Dawley
[17] = tested on: Rat; assay: concentration in liver after dosing; conditions: 12 h; dosed: Perfluorooctanoic acid; 12 mg/kg; oral; Male; Harlan Sprague Dawley
[18] = tested on: Rat; assay: concentration in liver after dosing; conditions: 1200 h; dosed: Perfluorooctanoic acid; 12 mg/kg; oral; Male; Harlan Sprague Dawley
[19] = tested on: Rat; assay: concentration in liver after dosing; conditions: 24 h; dosed: Perfluorooctanoic acid; 80 mg/kg; oral; Female; Harlan Sprague Dawley
[20] = tested on: Rat; assay: concentration in plasma after dosing; conditions: 1.5 h; dosed: Potassium Perfluorobutane Sulfonate; 20 mg/kg; oral; Male; Harlan Sprague Dawley
[21] = tested on: Rat; assay: concentration in plasma after dosing; conditions: 1.5 h; dosed: Potassium Perfluorobutane Sulfonate; 4 mg/kg; iv; Male; F344
[22] = tested on: Rat; assay: concentration in kidney after dosing; conditions: 3 h; dosed: Potassium Perfluorobutane Sulfonate; 20 mg/kg; oral; Male; Harlan Sprague Dawley
[23] = tested on: Rat; assay: concentration in plasma after dosing; conditions: 1 h; dosed: Potassium Perfluorobutane Sulfonate; 4 mg/kg; iv; Female; Harlan Sprague-Dawley
[24] = tested on: rat; assay: concentration in kidney after dosing (ugEq/g tissue); conditions: dosed: benzo[a]pyrene, iv, male, Wistar

COc1ccc(C(=O)c2ccccc2)c(O)c1 [2-Hydroxy-4-methoxybenzophenone]
Conditions | concentration in plasma [ng/mL]
[1] | 395
[2] | 45.1
[4] | 189
[5] | 832

concentration in plasma [ng/mL]
Conditions | 0.25 h | 4 h | 10 h | 10 min
[3] | – | – | 80.4 | 113
[6] | 100 | 16.3 | – | –

O=N[O-] [Nitrite]
Conditions | concentration in plasma [ng/mL]
[7], 1 h | 3100
[7], 5 min | 12600
[9], 1 h | 8300
[9], 2 h | 3600
[10], 0.75 h | 4400
[10], 2 min | 9000

Conditions | concentration in plasma [ng/mL]
[8] | 7300
[11] | 7600

O=C(O)C(F)(F)C(F)(F)C(F)(F)C(F)(F)C(F)(F)C(F)(F)C(F)(F)F [Perfluorooctanoic acid]
[12]
Conditions | concentration in plasma [ng/mL]
0.5 h | 210
9 h | 521

Conditions | concentration in brain [ng/g] | concentration in kidney [ng/g] | concentration in liver [ng/g] | concentration in plasma [ng/mL]
[13] | – | 2010 | – | –
[14] | – | – | – | 310
[15] | – | – | 676 | –
[16] | 3490 | – | – | –
[17] | – | – | 63300 | –
[18] | – | – | 4980 | –
[19] | – | – | 7880 | –

O=S(=O)([O-])C(F)(F)C(F)(F)C(F)(F)C(F)(F)F.[K+] [Potassium Perfluorobutane Sulfonate]
Conditions | concentration in kidney [ng/g] | concentration in plasma [ng/mL]
[20] | – | 58500
[21] | – | 1850
[22] | 20700 | –
[23] | – | 3410

c1ccc2c(c1)cc1ccc3cccc4ccc2c1c34 [benzo[a]pyrene]
concentration in kidney, [24]
Conditions | 2 mg/kg | 6 mg/kg | 15 mg/kg
0.5 h | 4.64 | 7.09 | 20.1
0.75 h | 4.02 | 7.57 | 16.8
1 h | 2.67 | 6.12 | 15.1
1.5 h | 1.31 | 2.25 | 13.6
2 h | 0.21 | 0.8 | 5.37
3 h | 0.23 | 0.2 | 1.77
4 h | 0.07 | 0.15 | 0.8
5 h | 0.06 | 0.09 | 0.36
5 min | 7 | 12.4 | 30.8
6 h | 0.08 | 0.11 | 0.35
8 h | 0.08 | 0.09 | 0.25
10 min | 7.09 | 15.9 | 25.2
20 min | 7.68 | 11.7 | 22.5
24 h | – | – | 0.05
32 h | – | – | 0.01
